Results on two compounds are retold here after patent US11179375B2, “Methods and drug products for treating Alzheimer's disease” (Zinfandel Pharmaceuticals, Inc., priority 2011, dated 2021).

The structures appear in SMILES notation. Structures can show the parent of a compound that is named as a salt. Where two headings read alike, the source gives them in different places. Where only a bound is given, the exact number is not on record here.

Series [1] is described as follows: Human exposure (AUC) used for dose extrapolation. The note with it: in vivo, humans, dose of 7.5 mg. The source says: (§1) Extrapolation to the corresponding dosage in humans was achieved while adjusting for the relative AUC for each.
A short description of another series: in vivo. The note with it: rat.
Source text: as §1

The subject of the next series is rat brain. In words: Rat BOLD fMRI study of resting state functional connectivity. The format is in vivo. How it is done: BOLD fMRI was used to measure drug-related changes in resting state functional connectivity across the whole brain.
Adult male Wistar rats (275±25 g) were housed separately and maintained on a 12-h light, 12-h dark schedule. Food and water was provided ad libitum. Animals were cared for in accordance with the guidelines published in the Guide for the Care and Use of Laboratory Animals (National Institutes of Health Publications No. 85-23, Revised 1985). Animal body weights were measured approximately 24 hours before Day −3, and on Study Days 3 and 6.
Pioglitazone HCl (PIO) was dissolved in 0.5 mol/L citric acid (CA) to yield a stock solution at a concentration of 0.32 mg/10 mL/kg. Other dosages were prepared by appropriate dilution of the stock solution with 0.5 mol/L CA to yield dose volumes of 10 mL/kg. Control rats received the vehicle at 10 mL/kg. Dose concentrations were based on the weight of the test article as supplied (i.e., as the HCl salt), with the dose adjusted to the most recent body weight of the animal. Daily dosing with PIO in solution was by oral gavage at approximately the same time every day. Animals were anesthetized lightly with isoflurane immediately beforehand to facilitate dosing.
All animals used in the imaging studies were acclimated to the MRI holding device by being placed in it for 15-90 minutes daily for at least 7 days, as previously described (Zhang et al. 2010 J Neurosci Methods 189: 186-196; Liang et al. 2011 J Neurosci 31: 3776-3783).
After the acclimation period, animals were assigned to 1 of 7 treatment arms matched for mean body weights (see Table 1). Dosing occurred once daily, at approximately the same time every day. All animals were imaged at Baseline (Study Day −3), approximately 2.5 to 3 h after dosing with vehicle. Dosing began 3 days later (Study Day 1). On this day, all animals were administered either vehicle (CA) or PIO depending on their group assignment. On Study Day 2, one vehicle group and one group treated with PIO at 0.08 mg/kg/day (Acute Arm) were imaged approximately 2.5 to 3 h after dosing. For all groups, dosing continued for seven days total. On Study Day 7, all rats were imaged approximately 2.5 to 3 h after administration of the final dose.
Animal preparation activities related to imaging were initiated to insure that the imaging itself occurred approximately 2.5 to 3 h after dosing. The animals were prepared for positioning in the restraint under isoflurane anesthesia as previously described (Zhang et al. 2010, supra). […] Imaging was conducted on awake animals.
All MR experiments were conducted using a 4.7 T/40 cm horizontal magnet (Oxford, UK) interfaced with a BiospecBruker console (Bruker, Germany) and equipped with a 20 G/cm magnetic field gradient. A dual ^1H radiofrequency (RF) coil configuration (Insight Neurolmaging Systems, Worcester, Mass.) consisting of a volume coil for exciting the water proton spins and a surface coil for receiving MRI signal was used; the volume and surface coils were actively tuned and detuned to prevent mutual coil coupling. This dual-coil configuration allowed for sufficient RF field homogeneity in the rat brain for RF transmission, while preserving the advantage of higher signal-to-noise ratio (SNR) provided by the smaller reception coil.
Anatomical images were acquired first using a multi-slice fast spin-echo sequence (RARE) with the parameters: repetition time (TR)=2125 ms; RARE factor=8; effective echo time (TE)=50 ms; matrix size=256×256; field of view (FOV)=3.2×3.2 cm^2; slice number=18; slice thickness=1 mm; n=8.

The test system of series [2] is transgenic mouse models of AD, and mouse and rat models of neurodegeneration or brain injury. The note with it: in vivo; cited from earlier work.
Series [3] has as its system neuronal insulin resistance. The conditions noted are these: cited from earlier work.
Series [4] deals with diabetic patients with AD or mild cognitive impairment. The conditions noted are these: placebo-controlled clinical trials; cited from earlier work.
Series [5] concerns cell death due to glucose deprivation. The conditions noted are these: cited from earlier work.

For `CCc1ccc(CCOc2ccc(CC3SC(=O)NC3=O)cc2)nc1` (stereo not shown) [PIO, Pioglitazone HCl], the area under the curve (AUC) in series [1] was 2800 ng·h/mL; in the series “in vivo” (Wistar, po, 0.04 mg/kg/day), 570 ng·h/mL; in “in vivo” (Wistar, po, 0.08 mg/kg/day), 1140 ng·h/mL; in “in vivo” (Wistar, po, 0.16 mg/kg/day), 2280 ng·h/mL; in the series “in vivo” (Wistar, po, 0.32 mg/kg/day), 4550 ng·h/mL; in “in vivo” (0.5 mg/kg/day), 7110 ng·h/mL. Further, the “time at which functional changes were induced” value with rat brain (0.08 mg/kg/day, earliest time point assayed after initiation of treatment) is ≤ 24 h. For the same compound, in the series with rat brain (0.32 mg/kg/day, appearance in FIG. 1, to be confirmed), the “fMRI signal relative to lower dosages” value is “diminished signal”. In addition, the “dose that induced functional changes at earliest time point” value in the series on rat brain (24 hours after initiation of treatment) was ≥ 0.08 mg/kg/day. In addition, in the series on rat brain (group-averaged fMRI signal, treatment day 7, relative to vehicle control), the “dose that induces change in metabolism in deep subcortical structure of the rat brain (fMRI)” value was ≥ 0.04 mg/kg/day. Also, in the series on rat brain (low-dose PIO, administered orally, concluded from fMRI changes), the “blood brain barrier penetration” value was “penetrates the blood brain barrier”. The “dose that induces changes in multiple brain regions” value in the series on rat brain (oral, relative to vehicle control) was ≥ 0.04 mg/kg/day.
Take `CCc1ccc(CCOc2ccc(CC3SC(=O)NC3=O)cc2)nc1` (stereo not shown) [pioglitazone, Pioglitazone]: the “reported effects in animal models (amyloid plaque burden, brain glucose utilization, inflammation, oxidative stress, memory and learning deficits, neurogenesis)” value in series [2] is recorded as “Beneficial effects”. Also, the neuronal insulin resistance entry in series [3] was “improves neuronal insulin resistance”. For the same compound, in series [4], the cognition result was “improved”, the hyperinsulinemia result is given as “improved” and the “regional cerebral blood flow” value is reported as “improved regional cerebral blood flow”. For the same compound, for the setting “0.5 mg dose”, the brain concentration result is recorded as “approximately 6.7 nM” and the serum concentration entry is “approximately 33.3 nM”. For the same compound, for the setting “1.5 mg dose”, the brain concentration result was “approximately 20 nM” and the serum concentration result is reported as “approximately 100 nM”. Under “4.5 mg dose”, the brain concentration result was “approximately 50 nM” and the serum concentration result was “approximately 300 nM”. For the same compound, where the note is “9 mg dose”, the brain concentration result was “approximately 120 nM” and the serum concentration entry is given as “approximately 600 nM”. In addition, the “change in metabolism in the central region of the deep cortical structures of the brain (fMRI)” value in the series on rat brain (even the lowest doses, orally-administered, immediate release) is given as “produce a change in metabolism”. Further, in series [5], the “concentration that significantly reduces cell death due to glucose deprivation” value is given as ≥ 1 nM; the “expression of NRF1, TFAM1 and UCP-2” value is “increases expression”.
